Species on record: Rattus norvegicus
Test: Open TG-GATES - Regimen: Daily Repeat
Type: toxicity, organism-based, Sprague-Dawley
Set-up: regimen Daily Repeat, gender Male, age 6 weeks
Settings: in vivo, po, 300 mg/kg, route gavage, dose level Middle; for APTT / Bas / Eos / Fbg / Hb / Ht / Lym / MCH / MCHC / MCV / Mono / Neu / PT / Plat / RBC / Ret / WBC: tissue Blood; for KIDNEY_L / KIDNEY_R / KIDNEY_TOTAL: tissue Kidney; for LIVER: tissue Liver; for A/G / ALP / ALT / AST / BUN / CRE / Ca / Cl / DBIL / GLC / IP / LDH / Na / PL / RALB / TBIL / TC / TG / TP / gamma-GTP: tissue Plasma

SMILES: NC(N)=Nc1nc(CSCCC(N)=NS(N)(=O)=O)cs1 [FAMOTIDINE]
- TERMINAL_BW (72 h, time 3 day): 225.8 g
- APTT (72 h, time 3 day): 21.2 s
- Bas (72 h, time 3 day): 0%
- Eos (72 h, time 3 day): 1%
- Fbg (72 h, time 3 day): 222 mg/dL
- Hb (72 h, time 3 day): 13.6 g/dL
- Ht (72 h, time 3 day): 37.4%
- Lym (72 h, time 3 day): 82%
- MCH (72 h, time 3 day): 23 pg
- MCHC (72 h, time 3 day): 36.3%
- MCV (72 h, time 3 day): 63.4 fL
- Mono (72 h, time 3 day): 2.6%
- Neu (72 h, time 3 day): 13.2%
- PT (72 h, time 3 day): 12 s
- Plat (72 h, time 3 day): 127.7 x10_4/uL
- RBC (72 h, time 3 day): 589.8 x10_4/ul
- Ret (72 h, time 3 day): 5.1%
- WBC (72 h, time 3 day): 106.3 x10_2/uL
- KIDNEY_L (72 h, time 3 day): 1 g
- KIDNEY_R (72 h, time 3 day): 1 g
- KIDNEY_TOTAL (72 h, time 3 day): 2 g
- LIVER (72 h, time 3 day): 10.4 g
- A/G (72 h, time 3 day): 1.7
- ALP (72 h, time 3 day): 998.8 IU/L
- ALT (72 h, time 3 day): 33.6 IU/L
- AST (72 h, time 3 day): 65 IU/L
- BUN (72 h, time 3 day): 14.4 mg/dL
- CRE (72 h, time 3 day): 0.4 mg/dL
- Ca (72 h, time 3 day): 10.9 mg/dL
- Cl (72 h, time 3 day): 102.6 meq/L
- DBIL (72 h, time 3 day): 0.082 mg/dL
- GLC (72 h, time 3 day): 186.2 mg/dL
- IP (72 h, time 3 day): 7.8 mg/dL
- LDH (72 h, time 3 day): 194.2 IU/L
- Na (72 h, time 3 day): 139.2 meq/L
- PL (72 h, time 3 day): 141.4 mg/dL
- RALB (72 h, time 3 day): 3.5 g/dL
- TBIL (72 h, time 3 day): 0.1 mg/dL
- TC (72 h, time 3 day): 76.2 mg/dL
- TG (72 h, time 3 day): 77.6 mg/dL
- TP (72 h, time 3 day): 5.6 g/dL
- gamma-GTP (72 h, time 3 day): 1.2 IU/L
- TERMINAL_BW ([…], time 7 day): 261.1 g
- TERMINAL_BW ([…], time 14 day): 316.2 g
- TERMINAL_BW ([…], time 28 day): 394.2 g
- APTT ([…], time 7 day): 20.3 s
- Bas ([…], time 7 day): 0%
- Eos ([…], time 7 day): 1%
- Fbg ([…], time 7 day): 225 mg/dL
- Hb ([…], time 7 day): 13.9 g/dL
- Ht ([…], time 7 day): 38.8%
- Lym ([…], time 7 day): 79.2%
- MCH ([…], time 7 day): 22.1 pg
- MCHC ([…], time 7 day): 35.8%
- MCV ([…], time 7 day): 61.7 fL
- Mono ([…], time 7 day): 2.2%
- Neu ([…], time 7 day): 16%
- PT ([…], time 7 day): 12 s
- Plat ([…], time 7 day): 114.6 x10_4/uL
- RBC ([…], time 7 day): 629.6 x10_4/ul
- Ret ([…], time 7 day): 5.2%
- WBC ([…], time 7 day): 85.9 x10_2/uL
- APTT ([…], time 14 day): 19.7 s
- Bas ([…], time 14 day): 0%
- Eos ([…], time 14 day): 0.8%
- Fbg ([…], time 14 day): 224 mg/dL
- Hb ([…], time 14 day): 14.4 g/dL
- Ht ([…], time 14 day): 42%
- Lym ([…], time 14 day): 79%
- MCH ([…], time 14 day): 20.9 pg
- MCHC ([…], time 14 day): 34.3%
- MCV ([…], time 14 day): 60.9 fL
- Mono ([…], time 14 day): 2.8%
- Neu ([…], time 14 day): 16%
- PT ([…], time 14 day): 12.4 s
- Plat ([…], time 14 day): 120.5 x10_4/uL
- RBC ([…], time 14 day): 689.4 x10_4/ul
- Ret ([…], time 14 day): 4.3%
- WBC ([…], time 14 day): 117 x10_2/uL
- APTT ([…], time 28 day): 20.2 s
- Bas ([…], time 28 day): 0%
- Eos ([…], time 28 day): 1.4%
- Fbg ([…], time 28 day): 220.6 mg/dL
- Hb ([…], time 28 day): 15.4 g/dL
- Ht ([…], time 28 day): 43.3%
- Lym ([…], time 28 day): 82.2%
- MCH ([…], time 28 day): 20 pg
- MCHC ([…], time 28 day): 35.4%
- MCV ([…], time 28 day): 56.4 fL
- Mono ([…], time 28 day): 1.6%
- Neu ([…], time 28 day): 13.4%
- PT ([…], time 28 day): 12.5 s
- Plat ([…], time 28 day): 100.3 x10_4/uL
- RBC ([…], time 28 day): 768.2 x10_4/ul
- Ret ([…], time 28 day): 2.3%
- WBC ([…], time 28 day): 116.4 x10_2/uL
- KIDNEY_L ([…], time 7 day): 1.2 g
- KIDNEY_R ([…], time 7 day): 1.1 g
- KIDNEY_TOTAL ([…], time 7 day): 2.3 g
- KIDNEY_L ([…], time 14 day): 1.2 g
- KIDNEY_R ([…], time 14 day): 1.2 g
- KIDNEY_TOTAL ([…], time 14 day): 2.4 g
- KIDNEY_L ([…], time 28 day): 1.4 g
- KIDNEY_R ([…], time 28 day): 1.4 g
- KIDNEY_TOTAL ([…], time 28 day): 2.8 g
- LIVER ([…], time 7 day): 12.6 g
- LIVER ([…], time 14 day): 13.4 g
- LIVER ([…], time 28 day): 14.9 g
- A/G ([…], time 7 day): 1.5
- ALP ([…], time 7 day): 921.4 IU/L
- ALT ([…], time 7 day): 34.2 IU/L
- AST ([…], time 7 day): 65.2 IU/L
- BUN ([…], time 7 day): 15.6 mg/dL
- CRE ([…], time 7 day): 0.4 mg/dL
- Ca ([…], time 7 day): 10.8 mg/dL
- Cl ([…], time 7 day): 103.4 meq/L
- DBIL ([…], time 7 day): 0.092 mg/dL
- GLC ([…], time 7 day): 192.8 mg/dL
- IP ([…], time 7 day): 7.6 mg/dL
- LDH ([…], time 7 day): 183.4 IU/L
- Na ([…], time 7 day): 141.4 meq/L
- PL ([…], time 7 day): 161 mg/dL
- RALB ([…], time 7 day): 3.4 g/dL
- TBIL ([…], time 7 day): 0.1 mg/dL
- TC ([…], time 7 day): 83.8 mg/dL
- TG ([…], time 7 day): 111.4 mg/dL
- TP ([…], time 7 day): 5.7 g/dL
- gamma-GTP ([…], time 7 day): 1.4 IU/L
- A/G ([…], time 14 day): 1.6
- ALP ([…], time 14 day): 907.6 IU/L
- ALT ([…], time 14 day): 40.2 IU/L
- AST ([…], time 14 day): 66 IU/L
- BUN ([…], time 14 day): 16 mg/dL
- CRE ([…], time 14 day): 0.5 mg/dL
- Ca ([…], time 14 day): 10.6 mg/dL
- Cl ([…], time 14 day): 103.2 meq/L
- DBIL ([…], time 14 day): 0.1 mg/dL
- GLC ([…], time 14 day): 208.2 mg/dL
- IP ([…], time 14 day): 7.3 mg/dL
- LDH ([…], time 14 day): 151.6 IU/L
- Na ([…], time 14 day): 140.2 meq/L
- PL ([…], time 14 day): 146.6 mg/dL
- RALB ([…], time 14 day): 3.5 g/dL
- TBIL ([…], time 14 day): 0.2 mg/dL
- TC ([…], time 14 day): 76 mg/dL
- TG ([…], time 14 day): 97.4 mg/dL
- TP ([…], time 14 day): 5.7 g/dL
- gamma-GTP ([…], time 14 day): 2.2 IU/L
- A/G ([…], time 28 day): 1.3
- ALP ([…], time 28 day): 609.6 IU/L
- ALT ([…], time 28 day): 35.2 IU/L
- AST ([…], time 28 day): 66.8 IU/L
- BUN ([…], time 28 day): 16.6 mg/dL
- CRE ([…], time 28 day): 0.5 mg/dL
- Ca ([…], time 28 day): 10.4 mg/dL
- Cl ([…], time 28 day): 103.4 meq/L
- DBIL ([…], time 28 day): 0.072 mg/dL
- GLC ([…], time 28 day): 217.8 mg/dL
- IP ([…], time 28 day): 7 mg/dL
- LDH ([…], time 28 day): 160.6 IU/L
- Na ([…], time 28 day): 141 meq/L
- PL ([…], time 28 day): 133 mg/dL
- RALB ([…], time 28 day): 3.3 g/dL
- TBIL ([…], time 28 day): 0.1 mg/dL
- TC ([…], time 28 day): 68.6 mg/dL
- TG ([…], time 28 day): 86.2 mg/dL
- TP ([…], time 28 day): 5.9 g/dL
- gamma-GTP ([…], time 28 day): 1 IU/L
